Measured values published in ChEMBL document CHEMBL1131475, “Discovery of ritonavir, a potent inhibitor of HIV protease with high oral bioavailability and clinical efficacy” (J Med Chem, 1998).

How the values were obtained:
in vivo [1] = settings: rat, plasma, po, 10 mg/kg
in vivo [2] = settings: rat, plasma, po
in vivo [3] = settings: rat, plasma, po; remark: listed apart in the source
in vivo [4] = settings: rat, plasma, iv
[5] = Oral bioavailability in rat; type: ADME, organism-based; settings: in vivo

SMILES	Cmax (in vivo [1]) [nM]	AUC (in vivo [2]) [ng·h/mL]	Tmax (in vivo [3]) [min]	half-life (in vivo [4]) [min]	bioavailability [5] [%]	F [5] [%]
CCc1nc(COC(=O)NC(C(=O)N[C@@H](Cc2ccccc2)C[C@H](O)[C@H](Cc2ccccc2)NC(=O)OCc2cccnc2)C(C)C)cs1 (stereo not given in full)	1300	330	9	45	7.4	
Cc1ccc(COC(=O)NC(C(=O)N[C@@H](Cc2ccccc2)[C@@H](O)C[C@H](Cc2ccccc2)NC(=O)OCc2cccnc2)C(C)C)cn1 (stereo not given in full)	450	240	6	34.2	6.3	
CC(C)c1nc(CN(C)C(=O)NC(C(=O)N[C@@H](Cc2ccccc2)C[C@H](O)[C@H](Cc2ccccc2)NC(=O)OCc2ccno2)C(C)C)cs1 (stereo not given in full)	370	270	12	35.4	7.7	
Cc1ncc(COC(=O)NC(C(=O)N[C@@H](Cc2ccccc2)C[C@H](O)[C@H](Cc2ccccc2)NC(=O)OCc2cccnc2)C(C)C)nc1C (stereo not given in full)	2060	480	6	25.8	10	
CC(C)c1nc(COC(=O)NC(C(=O)N[C@@H](Cc2ccccc2)C[C@H](O)[C@H](Cc2ccccc2)NC(=O)OCc2cccnc2)C(C)C)co1 (stereo not given in full)	460	200	12	19.8	5	
CCc1ncc(COC(=O)NC(C(=O)N[C@@H](Cc2ccccc2)C[C@H](O)[C@H](Cc2ccccc2)NC(=O)OCc2cccnc2)C(C)C)s1 (stereo not given in full)	160	10	6	11.4	0.5	
COc1cncc(CN(C)C(=O)NC(C(=O)N[C@@H](Cc2ccccc2)C[C@H](O)[C@H](Cc2ccccc2)NC(=O)OCc2cccnc2)C(C)C)c1 (stereo not given in full)	180	50	9	16.8	0.4	
CC(C)C(NC(=O)OCc1cnccn1)C(=O)N[C@@H](Cc1ccccc1)[C@@H](O)C[C@H](Cc1ccccc1)NC(=O)OCc1cccnc1 (stereo not given in full)	1030	210	12	13.8	4.5	
CC(C)c1nc(CN(C)C(=O)NC(C(=O)N[C@@H](Cc2ccccc2)[C@@H](O)C[C@H](Cc2ccccc2)NC(=O)OCc2cncs2)C(C)C)cs1 (stereo not given in full)	2290	1700	105	120	16	
CC(C)c1csc(COC(=O)NC(C(=O)N[C@@H](Cc2ccccc2)C[C@H](O)[C@H](Cc2ccccc2)NC(=O)OCc2cncs2)C(C)C)n1 (stereo not given in full)	5800	14300	55.2	30		151
COc1cncc(COC(=O)NC(C(=O)N[C@@H](Cc2ccccc2)C[C@H](O)[C@H](Cc2ccccc2)NC(=O)OCc2cccnc2)C(C)C)c1 (stereo not given in full)	200	30	6	48	0.9	
CC(C)C(NC(=O)N(C)Cc1csc(C2CC2)n1)C(=O)N[C@@H](Cc1ccccc1)[C@@H](O)C[C@H](Cc1ccccc1)NC(=O)OCc1cncs1 (stereo not given in full)	3980	10700	138	31.8		175
CC(C)C(NC(=O)OCc1ccccn1)C(=O)N[C@@H](Cc1ccccc1)C[C@H](O)[C@H](Cc1ccccc1)NC(=O)OCc1cncs1 (stereo not given in full)	2040	4240	22.2	73.8	47	
CC(C)C(NC(=O)N(C)Cc1csc(C2CC2)n1)C(=O)N[C@@H](Cc1ccccc1)C[C@H](O)[C@H](Cc1ccccc1)NC(=O)OCc1cncs1 (stereo not given in full)	6460	21900	130	66	58	
COc1ccc(CN(C)C(=O)NC(C(=O)N[C@@H](Cc2ccccc2)[C@@H](O)C[C@H](Cc2ccccc2)NC(=O)OCc2cccnc2)C(C)C)cn1 (stereo not given in full)	1830	310	6	19.2	7.9	
CC(C)c1cccc(COC(=O)NC(C(=O)N[C@@H](Cc2ccccc2)[C@@H](O)C[C@H](Cc2ccccc2)NC(=O)OCc2cccnc2)C(C)C)n1 (stereo not given in full)	310	310	15	78.6	8.3	
Cc1nc(CN(C)C(=O)NC(C(=O)N[C@@H](Cc2ccccc2)[C@@H](O)C[C@H](Cc2ccccc2)NC(=O)OCc2cccnc2)C(C)C)cs1 (stereo not given in full)	2010	1080	15	89.4	15	
COc1ccc(CN(C)C(=O)NC(C(=O)N[C@@H](Cc2ccccc2)[C@@H](O)C[C@H](Cc2ccccc2)NC(=O)OCc2cccnc2)C(C)C)nc1 (stereo not given in full)	2170	820	9	36	17	
